Results as given in ChEMBL document CHEMBL1201862, “PubChem BioAssay data set” (2004).
Calls of active or inactive are those of the source.

Assays:
[1] = target: T1, Heat shock factor protein 1 (Mus musculus, UniProt P38532); assay: enhancement of HSF1-driven luciferase signal – cell-based, NIH3T3, luminescence, dose retest, confirmation (AID 435004); format: functional;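 note: stress induced by proteasome inhibitor MG132 added 30 min after compound; luciferase reporter driven by HSF1 response element in NIH3T3 cells; actives raise luminescence as potentiators of the MG132 stress response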
T1 sequence (P38532 whole entry): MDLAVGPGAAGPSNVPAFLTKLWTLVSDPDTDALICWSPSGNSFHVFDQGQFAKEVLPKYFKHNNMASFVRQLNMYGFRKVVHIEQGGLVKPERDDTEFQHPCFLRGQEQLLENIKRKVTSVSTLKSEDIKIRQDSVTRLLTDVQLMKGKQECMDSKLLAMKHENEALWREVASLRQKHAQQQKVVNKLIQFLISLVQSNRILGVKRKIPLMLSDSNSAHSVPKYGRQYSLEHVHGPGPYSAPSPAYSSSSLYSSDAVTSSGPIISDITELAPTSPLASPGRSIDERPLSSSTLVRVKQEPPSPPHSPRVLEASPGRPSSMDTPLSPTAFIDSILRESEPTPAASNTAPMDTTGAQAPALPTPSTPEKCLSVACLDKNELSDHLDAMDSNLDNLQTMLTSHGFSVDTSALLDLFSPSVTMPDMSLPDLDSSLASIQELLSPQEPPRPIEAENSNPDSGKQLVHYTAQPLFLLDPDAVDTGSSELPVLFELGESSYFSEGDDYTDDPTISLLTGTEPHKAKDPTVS

[2] = target: T2, Sentrin-specific protease 8 (Homo sapiens, UniProt Q96LD8); format: functional;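 note: luminescence read-out of SENP8 inhibition, dose-response confirmation following an ultra-high-throughput screen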
T2 sequence (Q96LD8 whole entry): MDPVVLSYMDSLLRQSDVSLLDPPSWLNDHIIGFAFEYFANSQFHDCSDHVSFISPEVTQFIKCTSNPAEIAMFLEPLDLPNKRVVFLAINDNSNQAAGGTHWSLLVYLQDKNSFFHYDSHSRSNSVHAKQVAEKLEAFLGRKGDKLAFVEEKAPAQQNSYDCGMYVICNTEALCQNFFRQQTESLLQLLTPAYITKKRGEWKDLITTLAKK

[3] = target: T3, Endoribonuclease toxin MazF (Escherichia coli K-12, UniProt P0AE70); assay: activation of MazEF endoribonuclease cleavage – biochemical, fluorescence, single-stranded RNA substrate, uHTS hits, dose response (AID 588481); format: functional
T3 sequence (P0AE70 whole entry): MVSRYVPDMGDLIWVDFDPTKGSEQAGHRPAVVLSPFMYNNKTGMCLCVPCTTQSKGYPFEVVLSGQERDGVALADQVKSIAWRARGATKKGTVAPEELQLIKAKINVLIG

[4] = target: Delta-type opioid receptor (Homo sapiens, UniProt P41143); assay: Counterscreen for agonists of heterodimerization of the mu 1 (OPRM1) and delta 1 (OPRD1) opioid receptors: Luminescence-based cell-based high throughput dose response assay to identify agonists of OPRD1 homodimerization. [Related pubchem assays (depositor defined):AID504326, AID504355, AID504692, AID504904, AID504905]; format: functional
Delta-type opioid receptor, sequence (P41143 whole entry): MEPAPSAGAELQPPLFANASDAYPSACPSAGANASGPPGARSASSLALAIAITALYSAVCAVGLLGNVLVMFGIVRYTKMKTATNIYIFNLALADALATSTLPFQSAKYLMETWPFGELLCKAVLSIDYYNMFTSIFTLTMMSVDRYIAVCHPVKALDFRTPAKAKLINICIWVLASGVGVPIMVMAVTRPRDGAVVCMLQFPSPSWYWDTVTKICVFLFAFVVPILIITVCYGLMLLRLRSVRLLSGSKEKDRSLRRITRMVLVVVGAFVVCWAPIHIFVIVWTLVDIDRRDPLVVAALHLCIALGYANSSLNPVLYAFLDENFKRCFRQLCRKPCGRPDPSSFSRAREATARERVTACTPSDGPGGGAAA

[5] = HEK-293T viability loss after treatment – luminescence, T-cell screen hits, cytotoxicity control for TCR NF-kB inhibitor project, dose response (AID 489026); format: functional, cell-based;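 note: cells exposed to compound about 14 hours before the viability readout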
Phospholipase A2 = Phospholipase A2 (Homo sapiens, UniProt P04054); format: functional;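 note: confirmatory dose-response counterscreen on phospholipase A2, testing hits that came from an ultra-high-throughput screen for ATG4B inhibitors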
Phospholipase A2, sequence (P04054 whole entry): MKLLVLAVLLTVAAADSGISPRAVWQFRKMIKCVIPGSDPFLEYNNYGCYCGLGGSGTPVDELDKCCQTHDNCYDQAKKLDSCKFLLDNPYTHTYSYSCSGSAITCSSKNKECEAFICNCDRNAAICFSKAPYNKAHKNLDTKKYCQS

[6] = target: T4, Tyrosine-protein phosphatase non-receptor type 22 (Homo sapiens, UniProt Q9Y2R2); format: functional;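 note: confirmatory dose-response retest of primary uHTS hits for inhibition of LYP phosphatase, measured by a fluorescence intensity read-out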
T4 sequence (Q9Y2R2 whole entry): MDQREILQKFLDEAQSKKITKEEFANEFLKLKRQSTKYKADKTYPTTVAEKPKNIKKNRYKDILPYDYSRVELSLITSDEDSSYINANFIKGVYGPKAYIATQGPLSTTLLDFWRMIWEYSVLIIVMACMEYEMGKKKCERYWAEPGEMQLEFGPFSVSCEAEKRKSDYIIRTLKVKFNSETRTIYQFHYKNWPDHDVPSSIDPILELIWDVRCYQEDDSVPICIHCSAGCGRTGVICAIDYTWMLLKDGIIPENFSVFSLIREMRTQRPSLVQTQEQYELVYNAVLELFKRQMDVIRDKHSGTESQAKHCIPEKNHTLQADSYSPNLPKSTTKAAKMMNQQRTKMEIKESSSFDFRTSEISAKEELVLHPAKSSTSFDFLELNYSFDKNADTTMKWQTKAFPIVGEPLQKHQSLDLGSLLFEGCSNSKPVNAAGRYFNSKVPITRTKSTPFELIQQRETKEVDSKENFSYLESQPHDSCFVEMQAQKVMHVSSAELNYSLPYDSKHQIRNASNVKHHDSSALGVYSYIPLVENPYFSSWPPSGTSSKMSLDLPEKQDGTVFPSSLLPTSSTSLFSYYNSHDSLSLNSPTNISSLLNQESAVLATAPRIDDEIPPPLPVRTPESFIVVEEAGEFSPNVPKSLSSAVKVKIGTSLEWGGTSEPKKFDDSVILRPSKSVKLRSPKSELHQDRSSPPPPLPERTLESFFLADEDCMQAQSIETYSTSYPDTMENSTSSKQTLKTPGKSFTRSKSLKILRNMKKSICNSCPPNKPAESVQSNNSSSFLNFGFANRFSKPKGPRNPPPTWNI

[7] = target: T5, RNA-editing ligase 1, mitochondrial (Trypanosoma brucei brucei, UniProt P86926); assay: inhibition of trypanosome RNA editing ligase – biochemical, fluorescence, Trypanosoma brucei, dose response (AID 1117295); format: functional
T5 sequence (P86926 whole entry): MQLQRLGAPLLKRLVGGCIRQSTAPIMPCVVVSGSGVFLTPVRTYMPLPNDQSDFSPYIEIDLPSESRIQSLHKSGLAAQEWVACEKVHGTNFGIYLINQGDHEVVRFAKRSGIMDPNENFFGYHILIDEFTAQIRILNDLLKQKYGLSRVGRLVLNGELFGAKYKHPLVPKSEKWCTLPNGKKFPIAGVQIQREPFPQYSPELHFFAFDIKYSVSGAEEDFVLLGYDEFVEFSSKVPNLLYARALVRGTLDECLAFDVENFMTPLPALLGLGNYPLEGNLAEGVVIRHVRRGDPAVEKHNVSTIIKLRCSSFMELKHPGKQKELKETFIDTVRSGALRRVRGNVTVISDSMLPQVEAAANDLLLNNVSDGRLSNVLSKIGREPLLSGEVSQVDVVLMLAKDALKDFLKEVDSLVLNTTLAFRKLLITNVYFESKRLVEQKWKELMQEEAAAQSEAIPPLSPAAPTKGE

[8] = target: Peroxisome proliferator-activated receptor gamma/Nuclear receptor corepressor 2 (Homo sapiens, UniProt P37231+Q9Y618); format: functional
Peroxisome proliferator-activated receptor gamma/Nuclear receptor corepressor 2, sequence (P37231 whole entry): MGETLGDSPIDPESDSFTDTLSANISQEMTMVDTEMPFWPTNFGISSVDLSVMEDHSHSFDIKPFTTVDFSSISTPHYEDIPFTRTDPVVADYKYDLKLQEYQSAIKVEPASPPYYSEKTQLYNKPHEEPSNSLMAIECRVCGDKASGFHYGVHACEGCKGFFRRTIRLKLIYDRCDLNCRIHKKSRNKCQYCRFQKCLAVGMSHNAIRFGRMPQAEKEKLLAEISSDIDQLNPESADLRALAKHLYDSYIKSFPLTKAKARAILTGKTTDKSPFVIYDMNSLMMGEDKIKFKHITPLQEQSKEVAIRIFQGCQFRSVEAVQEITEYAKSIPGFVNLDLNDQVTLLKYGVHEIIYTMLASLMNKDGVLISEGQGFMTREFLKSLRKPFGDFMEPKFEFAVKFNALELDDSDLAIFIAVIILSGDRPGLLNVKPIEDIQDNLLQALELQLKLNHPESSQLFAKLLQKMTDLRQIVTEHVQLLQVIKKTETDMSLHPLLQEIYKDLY
Peroxisome proliferator-activated receptor gamma/Nuclear receptor corepressor 2, sequence (Q9Y618 whole entry): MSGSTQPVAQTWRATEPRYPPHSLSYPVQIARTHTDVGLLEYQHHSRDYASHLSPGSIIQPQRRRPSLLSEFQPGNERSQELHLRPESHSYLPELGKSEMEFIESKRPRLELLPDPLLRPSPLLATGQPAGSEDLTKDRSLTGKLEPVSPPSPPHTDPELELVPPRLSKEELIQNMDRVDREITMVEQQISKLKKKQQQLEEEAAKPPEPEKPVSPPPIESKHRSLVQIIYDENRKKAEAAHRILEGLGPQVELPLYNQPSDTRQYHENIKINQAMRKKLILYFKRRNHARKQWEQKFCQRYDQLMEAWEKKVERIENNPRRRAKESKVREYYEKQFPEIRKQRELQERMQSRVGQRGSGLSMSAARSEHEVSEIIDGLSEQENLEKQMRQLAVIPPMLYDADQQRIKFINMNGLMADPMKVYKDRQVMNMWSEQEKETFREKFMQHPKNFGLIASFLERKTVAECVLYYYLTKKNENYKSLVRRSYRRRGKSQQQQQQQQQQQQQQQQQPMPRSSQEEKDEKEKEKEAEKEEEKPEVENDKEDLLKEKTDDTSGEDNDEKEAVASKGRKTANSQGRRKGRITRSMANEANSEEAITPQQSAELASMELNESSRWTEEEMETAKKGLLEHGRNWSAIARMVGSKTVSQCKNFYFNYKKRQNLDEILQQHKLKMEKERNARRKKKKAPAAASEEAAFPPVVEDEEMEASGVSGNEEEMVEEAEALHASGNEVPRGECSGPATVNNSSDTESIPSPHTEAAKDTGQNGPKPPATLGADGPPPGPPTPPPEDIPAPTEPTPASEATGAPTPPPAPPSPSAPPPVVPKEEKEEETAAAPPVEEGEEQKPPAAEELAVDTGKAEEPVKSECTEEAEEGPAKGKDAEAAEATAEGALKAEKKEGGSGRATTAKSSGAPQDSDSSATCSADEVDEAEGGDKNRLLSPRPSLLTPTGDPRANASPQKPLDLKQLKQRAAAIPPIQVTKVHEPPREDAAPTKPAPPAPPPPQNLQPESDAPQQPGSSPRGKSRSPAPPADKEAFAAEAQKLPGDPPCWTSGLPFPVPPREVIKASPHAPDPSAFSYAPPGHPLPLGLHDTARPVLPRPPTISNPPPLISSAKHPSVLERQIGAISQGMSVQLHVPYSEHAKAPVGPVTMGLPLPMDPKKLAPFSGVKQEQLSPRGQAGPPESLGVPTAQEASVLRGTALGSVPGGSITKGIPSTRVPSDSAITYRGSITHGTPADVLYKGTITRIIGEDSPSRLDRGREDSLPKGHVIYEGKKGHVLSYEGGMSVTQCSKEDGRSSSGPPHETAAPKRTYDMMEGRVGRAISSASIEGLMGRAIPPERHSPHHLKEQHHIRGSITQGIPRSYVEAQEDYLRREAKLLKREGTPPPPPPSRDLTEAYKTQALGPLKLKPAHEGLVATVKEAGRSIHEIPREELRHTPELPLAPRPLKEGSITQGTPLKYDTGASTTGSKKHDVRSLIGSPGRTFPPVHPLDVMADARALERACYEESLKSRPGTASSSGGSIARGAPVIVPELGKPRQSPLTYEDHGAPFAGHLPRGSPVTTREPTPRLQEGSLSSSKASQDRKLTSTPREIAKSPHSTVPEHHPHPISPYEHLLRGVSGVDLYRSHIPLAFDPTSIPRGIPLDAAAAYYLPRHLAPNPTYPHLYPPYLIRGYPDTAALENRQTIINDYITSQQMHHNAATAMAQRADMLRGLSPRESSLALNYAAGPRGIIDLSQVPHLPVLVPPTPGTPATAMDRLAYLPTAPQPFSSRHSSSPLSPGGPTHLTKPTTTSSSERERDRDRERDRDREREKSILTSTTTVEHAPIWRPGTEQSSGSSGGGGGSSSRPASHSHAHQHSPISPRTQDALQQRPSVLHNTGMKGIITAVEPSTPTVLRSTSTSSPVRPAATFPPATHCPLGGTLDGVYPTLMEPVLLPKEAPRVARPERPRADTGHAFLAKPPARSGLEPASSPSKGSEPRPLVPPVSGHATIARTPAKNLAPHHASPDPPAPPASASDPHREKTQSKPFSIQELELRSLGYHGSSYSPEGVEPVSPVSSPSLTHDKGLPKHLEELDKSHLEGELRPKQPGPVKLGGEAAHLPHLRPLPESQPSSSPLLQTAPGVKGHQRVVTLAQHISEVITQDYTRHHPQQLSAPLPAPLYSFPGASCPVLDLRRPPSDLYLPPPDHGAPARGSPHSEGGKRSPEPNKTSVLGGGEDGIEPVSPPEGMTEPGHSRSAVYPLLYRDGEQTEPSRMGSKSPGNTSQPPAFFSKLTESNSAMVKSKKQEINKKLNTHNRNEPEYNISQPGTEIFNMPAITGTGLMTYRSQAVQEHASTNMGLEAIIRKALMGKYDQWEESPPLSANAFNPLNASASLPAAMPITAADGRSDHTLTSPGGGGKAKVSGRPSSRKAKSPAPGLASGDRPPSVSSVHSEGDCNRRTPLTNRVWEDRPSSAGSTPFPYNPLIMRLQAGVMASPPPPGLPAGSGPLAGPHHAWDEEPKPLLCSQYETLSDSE

[9] = target: Dual specificity tyrosine-phosphorylation-regulated kinase 1A (Rattus norvegicus, UniProt Q63470); format: biochemical, Homo sapiens
[10] = luciferase reporter signal suppression in cells – H4 neuroglioma cells, luminescence, dose response (AID 1990); format: functional, cell-based
[11] = target: Lysine-specific demethylase 4C (Homo sapiens, UniProt Q9H3R0); assay: inhibition of JMJD2C H3K9me3 demethylation – biochemical, DELFIA europium, cherry-picked samples, dose response (AID 488835); format: functional
Lysine-specific demethylase 4C, sequence (Q9H3R0 whole entry): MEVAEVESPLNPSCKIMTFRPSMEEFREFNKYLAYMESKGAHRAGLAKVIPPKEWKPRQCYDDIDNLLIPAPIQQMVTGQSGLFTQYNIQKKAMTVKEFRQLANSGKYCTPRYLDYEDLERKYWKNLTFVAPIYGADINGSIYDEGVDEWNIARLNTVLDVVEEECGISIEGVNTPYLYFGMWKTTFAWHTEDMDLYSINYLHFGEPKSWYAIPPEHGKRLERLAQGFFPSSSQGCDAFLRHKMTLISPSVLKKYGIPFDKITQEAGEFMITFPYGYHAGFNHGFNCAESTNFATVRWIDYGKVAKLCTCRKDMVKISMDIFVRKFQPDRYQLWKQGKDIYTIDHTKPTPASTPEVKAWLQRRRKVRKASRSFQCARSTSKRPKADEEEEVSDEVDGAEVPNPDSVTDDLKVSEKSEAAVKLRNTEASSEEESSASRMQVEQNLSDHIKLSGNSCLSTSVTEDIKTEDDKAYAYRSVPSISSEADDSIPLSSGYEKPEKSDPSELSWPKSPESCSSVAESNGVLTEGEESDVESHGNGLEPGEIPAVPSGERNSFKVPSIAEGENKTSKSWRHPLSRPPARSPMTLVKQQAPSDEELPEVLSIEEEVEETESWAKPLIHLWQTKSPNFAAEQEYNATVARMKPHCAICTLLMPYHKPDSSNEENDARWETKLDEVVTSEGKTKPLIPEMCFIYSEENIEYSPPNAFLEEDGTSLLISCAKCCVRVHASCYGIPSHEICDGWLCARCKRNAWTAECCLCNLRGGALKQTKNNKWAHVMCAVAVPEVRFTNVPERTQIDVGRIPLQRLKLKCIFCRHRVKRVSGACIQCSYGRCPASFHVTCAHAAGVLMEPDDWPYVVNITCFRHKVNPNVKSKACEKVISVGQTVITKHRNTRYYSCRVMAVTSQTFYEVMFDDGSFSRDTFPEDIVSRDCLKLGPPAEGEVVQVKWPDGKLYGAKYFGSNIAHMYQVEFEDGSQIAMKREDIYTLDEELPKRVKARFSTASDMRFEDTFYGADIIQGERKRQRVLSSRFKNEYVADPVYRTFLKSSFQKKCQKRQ

Q: With Oc1nc(Nc2ccccc2Cl)cc2ccccc12 as the compound, how does the EC50 [1] read?
A: 136 µM (active)

Q: And the IC50 [2]?
A: 4.23 µM (active)

Q: With O=C1C=C(c2c(O)ccc3ccccc23)c2ccccc2C1=O as the compound, how does the EC50 [3] read?
A: 7.31 µM (active)

Q: And the EC50 [4]?
A: > 92.4 µM (inactive)

Q: Which results are given for Cc1nc2c(=O)n(C)c(=O)nc-2n(C)n1?
A: IC50 [5]: 9.41 µM (active); IC50 (Phospholipase A2): > 80 µM (inactive); IC50 [6]: < 1.24 µM (active); IC50 [7]: 0.411 µM (active); IC50 [8]: > 39.8 µM (not active); AC50 [9]: 0.215 µM (active); EC50 [10]: 0.235 µM (active); AC50 [11]: 0.425 µM (active)
